From patent US7094794B2, “Substituted thiazole-benzoisothiazole dioxide derivatives, process for their preparation and their use” (Sanofi-Aventis Deutschland GmbH, priority 2003, dated 2006)

Molecular target: T1, recombinant hPTP1B (human PTP1B, 1-299 aa) (Homo sapiens, UniProt P18031)
T1 construct: without the carboxy-terminal hydrophobic region (corresponding to 1-299 aa); made in house; host or cells: Sf9 insect cells (baculovirus, Bac-to-Bac, pFASTBAC)
T1 sequence (P18031 1-299): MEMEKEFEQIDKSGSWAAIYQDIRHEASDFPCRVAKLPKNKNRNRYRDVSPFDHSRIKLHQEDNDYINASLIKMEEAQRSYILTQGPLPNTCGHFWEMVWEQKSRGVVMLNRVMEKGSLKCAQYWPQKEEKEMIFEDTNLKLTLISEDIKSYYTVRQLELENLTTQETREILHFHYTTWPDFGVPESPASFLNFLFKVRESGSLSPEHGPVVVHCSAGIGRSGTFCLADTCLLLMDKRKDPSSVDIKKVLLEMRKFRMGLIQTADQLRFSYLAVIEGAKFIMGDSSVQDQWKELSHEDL
Experiment: Enzymatic test systems for detecting inhibition of a phosphatase (in vitro assay)
Type: biochemical
Settings: Table 2 does not say which substrate (phosphopeptide or p-nitrophenyl phosphate)
Method: Enzymatic Test Systems for Detecting Inhibition of a Phosphatase
The compounds of the formula I were tested for their phosphatase-inhibiting effect in an in vitro assay. The enzyme preparation and the performance of the assay was carried out as follows.
• Sf9 cells (=Spodoptera frugiperda cell type; obtainable from invitrogen) are cultured in Grace's supplemented medium (Gibco-BRL) with 10% heat-inactivated fetal calf serum (Gibco-BRL) in spinner flasks at 28° C. in accordance with the protocol of Summers and Smith (A Manual for Methods for Baculoviruns Vectors and Insect Culture Procedures [Bulletin No. 15555]. Texas A & M University, Texas Agricultural Experiment Station, College Station, Tex., 1987). • Construction of recombinant Baculovirus transfer vectors: cDNA coding for the regulatory and catalytic domains of human PTP1B, but without the carboxy-terminal hydrophobic region (corresponding to 1-299 aa) was obtained by polymerase chain reaction via primers with attached cloning sites and suitable cDNA templates (obtainable for example from invitrogen) and then cloned into baculovirus expression vectors (Amersham Pharmacia Biotech.). The recombinant baculoviruses were prepared with the aid of the Bac-to-Bac baculovirus expression system (obtainable from Gibco-BRL). The gene was cloned into the pFASTBAC donor plasmid (obtainable from Life Technologies). The resulting plasmid was transformed into competent DH10BAC Escherichia coli cells (obtainable from Life Technologies). After transposition and antibiotic selection, the recombinant plasmid DNA was isolated from selected E. coli colonies and then used for the transfection of Sf9 insect cells. The virus particle in the supernatant medium was amplified three times up to a viral stock volume of 500 ml. B) Production of Recombinant Protein: • Baculovirus infection of a 500 ml spinner culture of Sf9 cells was essentially carried out as described by Summers and Smith (see above). Sf9 cells at a density of 1–3×10^6 cells/ml were pelleted by centrifugation at 300 g for 5 min, the supernatant was removed, and the cells were resuspended in a density of 1×10^7 cells/ml in a suitable recombinant viral stock (MOI 10). After careful shaking at room temperature for 1.5 h, fresh medium was added in order to achieve a cell density of 1×10^6 cells/ml. The cells were then cultured in the suspension at 28° C. for suitable periods after postinfection. C) Cellular Fractionation and Complete Cell Extracts of Infected Sf9 Cells: • After the postinfection, aliquots were subjected to an analysis of protein expression by SDS-PAGE and Western blot analysis. The cellular fractionation was carried out as described (Cromlish, W. and Kennedy, B. Biochem. Pharmacol. 52: 1777–1785, 1996). Complete cell extracts were obtained from 1 ml aliquots of the infected Sf9 cells after certain times postinfection. The pelleted cells (300×g, 5 min) were washed once in phosphate-buffered saline (4° C.), resuspended in 50 μl of water and disrupted by repeated freezing/thawing. Protein concentrations were determined with the aid of the Bradford method and bovine serum albumin as standard. Assay Procedure: A) Dephosphorylation of a Phosphopeptide: • This assay is based on the release of phosphate from a consensus substrate peptide which is detected in the nanomolar concentration range by the malachite green/ammonium molybdate method (Lanzetta, P. A., Alvarez, L. J., Reinach, P. S., Candia, O. A. Anal Biochem. 100: 95–97, 1979) adapted for the microtiter plate format. The dodecatrisphosphopeptide TRDIYETDYYRK (Biotrend, Cologne) corresponds to amino acids 1142–1153 of the catalytic domain of the insulin receptor and is (auto)phosphorylated on tyrosine residues 1146, 1150 and 1151. […]

Row | SMILES | IC50 [µM]
1 | O=S1(=O)Cc2cc(Nc3nc(-c4ccc5ccccc5c4)cs3)ccc2N1 [Example 3] | 8.8
2 | O=S1(=O)Cc2cc(Nc3nc(-c4ccc(Br)cc4)cs3)ccc2N1 [Example 4] | 6.2
3 | Cc1sc(Nc2ccc3c(c2)CS(=O)(=O)N3)nc1-c1ccccc1 [Example 5] | 15.9
4 | COc1ccc(-c2csc(Nc3ccc4c(c3)CS(=O)(=O)N4)n2)c(OC)c1 [Example 6] | 48
5 | O=S1(=O)Cc2cc(Nc3nc(-c4ccc(N5CCCC5)cc4)cs3)ccc2N1 [Example 8] | 5.9
6 | Cc1c(-c2csc(Nc3ccc4c(c3)CS(=O)(=O)N4)n2)sc2ccc(Cl)cc12 [Example 10] | 5.3
7 | Cc1c(-c2csc(Nc3ccc4c(c3)CS(=O)(=O)N4)n2)sc2ccccc12 [Example 11] | 6.2
8 | O=S1(=O)Cc2cc(Nc3nc(-c4ccncc4)cs3)ccc2N1 [Example 13] | > 80

Second part, the molecule after the results:

Row | IC50 [µM] | SMILES
9 | 27.8 | O=S1(=O)Cc2cc(Nc3nc(-c4ccc(Cl)c(Cl)c4)cs3)ccc2N1 [Example 2]
10 | 7.9 | O=S1(=O)Cc2cc(Nc3nc(-c4cccc(Br)c4)cs3)ccc2N1 [Example 7]
11 | 6.3 | COc1cccc(-c2csc(Nc3ccc4c(c3)CS(=O)(=O)N4)n2)c1 [Example 9]
12 | 2.77 | CC(C)(C)c1cc(-c2csc(Nc3ccc4c(c3)CS(=O)(=O)N4)n2)cc(C(C)(C)C)c1O [Example 14]
